Data reported in PMC12666569, “The Pseudomonas aeruginosa membrane histidine kinase BqsS/CarS directly senses environmental ferrous iron (Fe^2+)” (The Journal of Biological Chemistry, 2025).

B1: Pseudomonas aeruginosa membrane histidine kinase BqsS/CarS, intact (enzyme)
chain: MRSIQRRLSVGLFAVLLVVGLVLAQTGLWLFDQGLRRYFAGNLREEAENLLVAMVRGPNGMQLDEQRLNPAFQRPYSGRYFVIELEKDTWRSRSLWDSELEVPHKKGLVQGLVDGPEEQRLLVFRGHYKRMGQKLRIVVAQDYTPILESFARVQWMGLGAGALALLLVLLLQRLTVRRSLRPLEEVRLQIAQLQQGQRSQLDNQAPEELEPLVEQINHLLAHTEETLKRSRNALGNLGHALKTPLAVLVSLAEREEMARQPELQQVLREQLEQIQQRLGRELGKARLVGEALPGAHFDCAEELPSLCDTLRLIHGPHLQVSWSAPPGLRLPWDREDLLEMLGNLLDNACKWADSEVRLTVAQGEGMVRLKVDDDGPGILPDQRQAVLERGTRLDEQVSGHGLGLGIARDIAEACGGRLSLEDSPLGGLRVSVELPLQKSGRAARA
notes: also called PaBqsS; intact PaBqsS; source: E. coli BL21 (DE3), membranes solubilized in detergent (Fos-Chol-14), purified (IMAC, TEV cleavage, second IMAC, SEC)

Columns and labels:
intact PaBqsS = biological target: T1, intact PaBqsS (Pseudomonas aeruginosa, UniProt Q9I0I2); settings: 5.0 mM Mg2+, 37 °C, SEC buffer pH 7.5, Fos-Chol-14; no added Fe2+
T1 construct: gene carS

[1] = biological target: the molecule itself; test: SEC; cleaved, purified PaBqsS in detergent (Fos-Chol-14, also glyco-diosgenin (GDN)); HiLoad 16/600 Superose 6 pg; 50 mM Tris pH 7.5, 100 mM NaCl, 1 mM TCEP, 5% glycerol, 0.02% Fos-Chol-14

Row | Molecule | specific activity (intact PaBqsS) | stoichiometry N [1]
1 | Nc1ncnc2c1ncn2[C@@H]1O[C@H](COP(=O)(O)OP(=O)(O)OP(=O)(O)O)[C@@H](O)[C@H]1O [ATP] | We then tested the ATPase activity of intact PaBqsS purified in Fos-Chol-14 | 
2 | B1 |  | 2
